Data published in patent US12240846B2 (Enliven Inc., priority 2020, dated 2025).
“And” between values parts separate entries of the source, which are not always exact repeats. Equal entries are not always repeated.

Columns and labels:
[1] = target: ABL1 (T315I) (Homo sapiens, UniProt P00519, T315I); experiment: Luminescence-based ABL kinase assay (300 μM ATP), ADP-Glo; assay type: biochemical
[2] = target: T1, ABL1 (Homo sapiens, UniProt P00519); experiment: as above; assay type: biochemical
T1 construct: purchased Carna Biosciences
From the text: Compounds were serially diluted in DMSO. […] Luminescence signal positively correlates with kinase activity.

| Structure (SMILES) | IC50 [1] | IC50 [2] |
| --- | --- | --- |
| COc1ccccc1-c1cc2cc(NC(=O)[C@H]3C[C@H]3CN3CCN(C)CC3)ncc2n1C (relative stereo) [Compound 40, cis-N-(2-(2-methoxyphenyl)-1-methyl-1H-pyrrolo[2,3-c]pyridin-5-yl)-2-((4-methylpiperazin-1-yl)methyl)cyclopropane-1-carboxamide] | 145 nM | 113 nM |
| COc1ccccc1-c1cc2cc(NC(=O)[C@H]3C[C@H]3CN3CCOCC3)ncc2n1C (relative stereo) [Compound 41, cis-N-(2-(2-methoxyphenyl)-1-methyl-1H-pyrrolo[2,3-c]pyridin-5-yl)-2-(morpholinomethyl)cyclopropane-1-carboxamide] | 212 nM | 324 nM |
| Cn1c(-c2ccccc2OCCO)cc2cc(NC(=O)C3CC3)ncc21 [Compound 4, N-[2-[2-(2-hydroxyethoxy)phenyl]-1-methylpyrrolo[2,3-c]pyridin-5-yl]cyclopropanecarboxamide] | 599 nM | 817 nM |
| Cc1c(-c2cc3cc(NC(=O)C4CC4)ncc3n2C)ccc2c1CCN2 [Compound 13, N-[1-methyl-2-(4-methyl-2,3-dihydro-1H-indol-5-yl)pyrrolo[2,3-c]pyridin-5-yl]cyclopropanecarboxamide] | 300 nM | 567 nM |
| Cc1cc2[nH]ccc2cc1-c1cc2cc(NC(=O)C3CC3)ncc2n1C [Compound 14, N-(1-methyl-2-(6-methyl-1H-indol-5-yl)-1H-pyrrolo[2,3-c]pyridin-5-yl)cyclopropanecarboxamide] | 124 nM | 29.6 nM |
| Cc1c(-c2cc3cc(NC(=O)C4CC4)ncc3n2C)ccc2[nH]ccc12 [Compound 15, N-[1-methyl-2-(4-methyl-1H-indol-5-yl)pyrrolo[2,3-c]pyridin-5-yl]cyclopropanecarboxamide] | 101 nM | 103 nM |
| Cc1cc2[nH]ncc2cc1-c1cc2cc(NC(=O)C3CC3)ncc2n1C [Compound 16, N-(1-methyl-2-(6-methyl-1H-indazol-5-yl)-1H-pyrrolo[2,3-c]pyridin-5-yl)cyclopropanecarboxamide] | 545 nM | 184 nM |
| Cc1cc2[nH]cnc2cc1-c1cc2cc(NC(=O)C3CC3)ncc2n1C [Compound 17, N-[1-methyl-2-(6-methyl-1H-1,3-benzodiazol-5-yl)pyrrolo[2,3-c]pyridin-5-yl]cyclopropanecarboxamide] | 160 nM | 59.7 nM |
| Cc1c(-c2cc3cc(NC(=O)C4CC4)ncc3n2C)ccc2[nH]ncc12 [Compound 18, N-[1-methyl-2-(4-methyl-1H-indazol-5-yl)pyrrolo[2,3-c]pyridin-5-yl]cyclopropanecarboxamide] | 336 nM | 743 nM |
| Cc1c(-c2cc3cc(NC(=O)C4CC4)ncc3n2C)ccc2[nH]cnc12 [Compound 19, N-[1-methyl-2-(4-methyl-1H-1,3-benzodiazol-5-yl)pyrrolo[2,3-c]pyridin-5-yl]cyclopropanecarboxamide] | 68.3 nM | 263 nM |
| Cc1cccnc1-c1cc2cc(NC(=O)C3CC3)ncc2n1C [Compound 20, N-[1-methyl-2-(3-methylpyridin-2-yl)pyrrolo[2,3-c]pyridin-5-yl]cyclopropanecarboxamide] | 999 nM | > 10000 nM |
| [2H]C([2H])([2H])Oc1ncccc1-c1cc2cc(NC(=O)[C@H]3C[C@H]3F)ncc2n1C [Compound 33, (1R,2R)-2-fluoro-N-(2-(2-(methoxy-d3)pyridin-3-yl)-1-methyl-1H-pyrrolo[2,3-c]pyridin-5-yl)cyclopropane-1-carboxamide] | 183 nM | 59.5 nM |
| CCOc1ncccc1-c1cc2cc(NC(=O)[C@H]3C[C@H]3F)ncc2n1C [Compound 37, (1R,2R)-N-[2-(2-ethoxypyridin-3-yl)-1-methylpyrrolo[2,3-c]pyridin-5-yl]-2-fluorocyclopropane-1-carboxamide] | 551 nM | 35.4 nM |
| COc1cccc(F)c1-c1c(C)c2cc(NC(=O)[C@H]3C[C@H]3F)ncc2n1C [Compound 45, (1R,2R)-2-fluoro-N-[2-(2-fluoro-6-methoxyphenyl)-1,3-dimethylpyrrolo[2,3-c]pyridin-5-yl]cyclopropane-1-carboxamide] | 17.9 nM | 220 nM |
| COc1ncccc1-c1cc2cnc(NC(=O)C3CC3)cc2n1C [Compound 50, N-[2-(2-methoxypyridin-3-yl)-1-methylpyrrolo[3,2-c]pyridin-6-yl]cyclopropanecarboxamide] | 681 nM | 294 nM |

Results, then the molecule that gave them:

| IC50 [1] | IC50 [2] | Structure (SMILES) |
| --- | --- | --- |
| 78.3 nM | 78.3 nM | COc1ncc(F)c(OC)c1-c1cc2cc(NC(=O)[C@H]3C[C@@H]3CN(C)C)ncc2n1C (single isomer, unassigned) [Compound 131] |
| 85.9 nM | 48.6 nM | COc1ccnc(OC)c1-c1cc2cc(NC(=O)[C@@H]3C[C@H]3CN3CCNCC3)ncc2n1C (single isomer, unassigned) [Compound 139] |
| 66.7 nM | 30 nM | COc1ccnc(OC)c1-c1cc2cc(NC(=O)[C@H]3C[C@@H]3CN3CC4CC(C3)N4)ncc2n1C (single isomer, unassigned) [Example 135, Enantiomer 1] |
| 26 nM | 10.6 nM | COc1ccnc(OC)c1-c1cc2cc(NC(=O)[C@@H]3C[C@H]3CN3CC4CC(C3)N4)ncc2n1C (single isomer, unassigned) [Example 135, Enantiomer 2] |
| 64.1 nM | 88.6 nM | COc1ccccc1-c1cc2cnc(NC(=O)[C@@H]3C[C@@H]3F)cc2n1C [Compound 51, (1S,2S)-2-fluoro-N-[2-(2-methoxyphenyl)-1-methylpyrrolo[3,2-c]pyridin-6-yl]cyclopropane-1-carboxamide] |
| 7.24 nM | 71.3 nM | COc1cccc(F)c1-c1c(C)c2cnc(NC(=O)[C@H]3C[C@H]3F)cc2n1C [Compound 55, (1R,2R)-2-fluoro-N-[2-(2-fluoro-6-methoxyphenyl)-1,3-dimethylpyrrolo[3,2-c]pyridin-6-yl]cyclopropane-1-carboxamide] |
| 2670 nM and 4510 nM | 1430 nM and 1350 nM | CCn1c(-c2cccnc2OC)cc2cc(NC(=O)[C@@H]3C[C@@H]3F)ncc21 [Compound 63, (1S,2S)-N-(1-ethyl-2-(2-methoxypyridin-3-yl)-1H-pyrrolo[2,3-c]pyridin-5-yl)-2-fluorocyclopropane-1-carboxamide] |
| 431 nM | 109 nM | COc1ncncc1-c1cc2cc(NC(=O)[C@@H]3C[C@@H]3F)ncc2n1C [Compound 68, (1S,2S)-2-fluoro-N-(2-(4-methoxypyrimidin-5-yl)-1-methyl-1H-pyrrolo[2,3-c]pyridin-5-yl)cyclopropane-1-carboxamide] |
| 62.9 nM | 20.4 nM | COc1cc2ncsc2cc1-c1cc2cc(NC(=O)[C@@H]3C[C@@H]3F)ncc2n1C [Compound 69, (1S,2S)-2-fluoro-N-[2-(5-methoxy-1,3-benzothiazol-6-yl)-1-methylpyrrolo[2,3-c]pyridin-5-yl]cyclopropane-1-carboxamide] |
| 716 nM | 105 nM | COc1cc2nccn2cc1-c1cc2cc(NC(=O)[C@@H]3C[C@@H]3F)ncc2n1C [Compound 71, (1S,2S)-2-fluoro-N-(2-(7-methoxyimidazo[1,2-a]pyridin-6-yl)-1-methyl-1H-pyrrolo[2,3-c]pyridin-5-yl)cyclopropane-1-carboxamide] |
| 148 nM | 95.9 nM | CCNC(=O)Nc1cc2cc(-c3ccccc3OC)n(C)c2cn1 [Compound 77, 3-ethyl-1-[2-(2-methoxyphenyl)-1-methylpyrrolo[2,3-c]pyridin-5-yl]urea] |
| 411 nM | 183 nM | CCNC(=O)Nc1cc2cc(-c3cccnc3OC)n(C)c2cn1 [Compound 78, 3-ethyl-1-[2-(2-methoxypyridin-3-yl)-1-methylpyrrolo[2,3-c]pyridin-5-yl]urea] |
| 164 nM | 44.5 nM | CCN1CCN(CCNC(=O)Nc2cc3cc(-c4c(OC)ncc(F)c4OC)n(C)c3cn2)CC1 [Compound 84, 1-[2-(4-ethylpiperazin-1-yl)ethyl]-3-[2-(5-fluoro-2,4-dimethoxypyridin-3-yl)-1-methylpyrrolo[2,3-c]pyridin-5-yl]urea] |
| 399 nM | 388 nM | COc1ncnc(OC)c1-c1[nH]c2cc(NC(=O)[C@@H]3C[C@@H]3F)ncc2c1C [Compound 91, (1S,2S)-N-(2-(4,6-dimethoxypyrimidin-5-yl)-3-methyl-1H-pyrrolo[3,2-c]pyridin-6-yl)-2-fluorocyclopropane-1-carboxamide] |
| 207 nM | 40.4 nM | COc1nc(C(F)F)nc(OC)c1-c1cc2cc(NC(=O)[C@@H]3C[C@@H]3F)ncc2n1C [Compound 96, (1S,2S)-N-(2-(2-(difluoromethyl)-4,6-dimethoxypyrimidin-5-yl)-1-methyl-1H-pyrrolo[2,3-c]pyridin-5-yl)-2-fluorocyclopropane-1-carboxamide] |
| 412 nM | 123 nM | COc1nc(OC)c(-c2cc3cc(NC(=O)[C@@H]4C[C@@H]4F)ncc3n2C)c(OC)n1 [Compound 102, (1S,2S)-2-fluoro-N-(1-methyl-2-(2,4,6-trimethoxypyrimidin-5-yl)-1H-pyrrolo[2,3-c]pyridin-5-yl)cyclopropane-1-carboxamide] |
| 203 nM | 60.2 nM | CNc1ncnc(OC)c1-c1cc2cc(NC(=O)[C@@H]3C[C@@H]3F)ncc2n1C [Compound 109, (1S,2S)-2-fluoro-N-(2-(4-methoxy-6-(methylamino)pyrimidin-5-yl)-1-methyl-1H-pyrrolo[2,3-c]pyridin-5-yl)cyclopropane-1-carboxamide] |
| 357 nM | 280 nM | COc1ncnc(NC2CC2)c1-c1cc2cc(NC(=O)[C@@H]3C[C@@H]3F)ncc2n1C [Compound 110, (1S,2S)-N-(2-(4-(cyclopropylamino)-6-methoxypyrimidin-5-yl)-1-methyl-1H-pyrrolo[2,3-c]pyridin-5-yl)-2-fluorocyclopropane-1-carboxamide] |
